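In this assay, cells in 96-well plates receive the compound at five concentrations for 48 hours. Endpoints are linearly interpolated between the surrounding concentrations. The concentration for 50% growth inhibition is given as GI50. TGI: total growth inhibition.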
Columns and labels:
Assay in all cases: NCI-60 cell line screen, 48 h
[1] = tested on: NCI/ADR-RES ovarian
[2] = tested on: M14 melanoma
[3] = tested on: UACC-257 melanoma
[4] = tested on: MALME-3M melanoma
[5] = tested on: CAKI-1 renal
[6] = tested on: NCI-H23 lung
[7] = tested on: HCC-2998 colon
[8] = tested on: DU-145 prostate
[9] = tested on: EKVX NSCLC
[10] = tested on: A549 NSCLC
[11] = tested on: SF-295 CNS
[12] = tested on: HCT-116 colon
[13] = tested on: HL-60(TB) leukemia
[14] = tested on: CCRF-CEM leukemia
[15] = tested on: SNB-19 CNS
[16] = tested on: TK-10 renal
[17] = tested on: LOX IMVI melanoma
[18] = tested on: MDA-MB-435
[19] = tested on: PC-3 prostate
[20] = tested on: IGROV1 ovarian
[21] = tested on: T-47D breast
[22] = tested on: MCF7 breast
[23] = tested on: HOP-92 NSCLC
[24] = tested on: SK-MEL-5 melanoma
[25] = tested on: NCI-H522 lung
[26] = tested on: MOLT-4 leukemia
[27] = tested on: SNB-75 CNS
[28] = tested on: HT29 colon
[29] = tested on: SW-620 colon
[30] = tested on: A498 renal
[31] = tested on: SK-OV-3 ovarian
[32] = tested on: 786-0 renal
[33] = tested on: SN12C renal
[34] = tested on: RXF 393 renal
[35] = tested on: OVCAR-5 ovarian
[36] = tested on: SF-539 CNS
[37] = tested on: HOP-62 NSCLC
[38] = tested on: MDA-MB-231 breast
[39] = tested on: NCI-H460 lung
[40] = tested on: OVCAR-4 ovarian
[41] = tested on: COLO 205 colon
[42] = tested on: BT-549 breast
[43] = tested on: ACHN renal
[44] = tested on: SR leukemia
[45] = tested on: HS 578T breast
[46] = tested on: SK-MEL-28 melanoma
[47] = tested on: HCT-15 colon
[48] = tested on: K-562 leukemia
[49] = tested on: SK-MEL-2 melanoma
[50] = tested on: UO-31 renal
[51] = tested on: OVCAR-3 ovarian
[52] = tested on: NCI-H226 lung
[53] = tested on: UACC-62 melanoma
[54] = tested on: MDA-MB-468 breast
[55] = tested on: KM12 colon

Question: How did the GI50 [1] turn out when `[2H]C([2H])([2H])Oc1ccc2ncc(C#Cc3cncc(C(=O)Nc4ccc(CN5CCN(C)CC5)c(C(F)(F)F)c4)c3)n2n1` was run?
Answer: 1.18 µM

Question: And the TGI [1]?
Answer: 2.65 µM

Question: What about the GI50 [2] of the same molecule?
Answer: 0.377 µM

Question: What about the TGI [2] of the same molecule?
Answer: 1.62 µM

Question: What about the GI50 [3] of the same molecule?
Answer: 0.995 µM

Question: What about the TGI [3] of the same molecule?
Answer: 3.73 µM

Question: And the GI50 [4]?
Answer: 0.291 µM

Question: And the TGI [4]?
Answer: 1.49 µM

Question: What about the GI50 [5] of the same molecule?
Answer: 0.619 µM

Question: What about the TGI [5] of the same molecule?
Answer: 4.54 µM

Question: What about the GI50 [6] of the same molecule?
Answer: 0.35 µM

Question: What about the TGI [6] of the same molecule?
Answer: 1.63 µM

Question: And the GI50 [7]?
Answer: 1.03 µM

Question: What about the TGI [7] of the same molecule?
Answer: 2.7 µM

Question: What about the GI50 [8] of the same molecule?
Answer: 0.93 µM

Question: What about the TGI [8] of the same molecule?
Answer: 2.15 µM

Question: And the GI50 [9]?
Answer: 0.606 µM

Question: What about the TGI [9] of the same molecule?
Answer: 2.22 µM

Question: And the GI50 [10]?
Answer: 0.742 µM

Question: What about the TGI [10] of the same molecule?
Answer: 2.37 µM

Question: And the GI50 [11]?
Answer: 0.839 µM

Question: And the TGI [11]?
Answer: 7.23 µM

Question: And the GI50 [12]?
Answer: 0.0677 µM

Question: And the TGI [12]?
Answer: 1.24 µM

Question: And the GI50 [13]?
Answer: 0.101 µM

Question: And the TGI [13]?
Answer: 1.99 µM

Question: And the GI50 [14]?
Answer: 0.043 µM

Question: And the TGI [14]?
Answer: 3.74 µM

Question: And the GI50 [15]?
Answer: 1.39 µM

Question: What about the TGI [15] of the same molecule?
Answer: 2.64 µM

Question: And the GI50 [16]?
Answer: 3.17 µM

Question: And the TGI [16]?
Answer: 7.63 µM

Question: And the GI50 [17]?
Answer: 0.446 µM

Question: What about the TGI [17] of the same molecule?
Answer: 1.8 µM

Question: What about the GI50 [18] of the same molecule?
Answer: 0.321 µM

Question: And the TGI [18]?
Answer: 1.77 µM

Question: And the GI50 [19]?
Answer: 0.94 µM

Question: And the TGI [19]?
Answer: 2.35 µM

Question: And the GI50 [20]?
Answer: 0.581 µM

Question: What about the TGI [20] of the same molecule?
Answer: 2.04 µM

Question: And the GI50 [21]?
Answer: 12.1 µM

Question: And the TGI [21]?
Answer: 57.3 µM

Question: And the GI50 [22]?
Answer: 0.0503 µM

Question: What about the TGI [22] of the same molecule?
Answer: 1.46 µM

Question: What about the GI50 [23] of the same molecule?
Answer: 0.173 µM

Question: What about the TGI [23] of the same molecule?
Answer: 0.833 µM

Question: What about the GI50 [24] of the same molecule?
Answer: 2.27 µM

Question: And the TGI [24]?
Answer: 6.89 µM

Question: And the GI50 [25]?
Answer: 1.14 µM

Question: What about the TGI [25] of the same molecule?
Answer: 7.23 µM

Question: What about the GI50 [26] of the same molecule?
Answer: 0.0668 µM

Question: And the TGI [26]?
Answer: 2.02 µM

Question: What about the GI50 [27] of the same molecule?
Answer: 1.92 µM

Question: What about the TGI [27] of the same molecule?
Answer: 6.09 µM

Question: And the GI50 [28]?
Answer: 0.303 µM

Question: And the TGI [28]?
Answer: 1.41 µM

Question: And the GI50 [29]?
Answer: 0.167 µM

Question: And the TGI [29]?
Answer: 1.18 µM

Question: What about the GI50 [30] of the same molecule?
Answer: 8.64 µM

Question: What about the TGI [30] of the same molecule?
Answer: 27.8 µM

Question: What about the GI50 [31] of the same molecule?
Answer: 4.03 µM

Question: And the TGI [31]?
Answer: 18.6 µM

Question: And the GI50 [32]?
Answer: 1.37 µM

Question: And the TGI [32]?
Answer: 2.66 µM

Question: What about the GI50 [33] of the same molecule?
Answer: 0.498 µM

Question: And the TGI [33]?
Answer: 1.81 µM

Question: What about the GI50 [34] of the same molecule?
Answer: 1.15 µM

Question: What about the TGI [34] of the same molecule?
Answer: 2.5 µM

Question: What about the GI50 [35] of the same molecule?
Answer: 0.507 µM

Question: And the TGI [35]?
Answer: 1.8 µM

Question: And the GI50 [36]?
Answer: 0.112 µM

Question: What about the TGI [36] of the same molecule?
Answer: 1.06 µM

Question: And the GI50 [37]?
Answer: 0.656 µM

Question: And the TGI [37]?
Answer: 4.54 µM

Question: And the GI50 [38]?
Answer: 0.278 µM

Question: What about the TGI [38] of the same molecule?
Answer: 1.53 µM

Question: What about the GI50 [39] of the same molecule?
Answer: 0.239 µM

Question: And the TGI [39]?
Answer: 1.81 µM

Question: What about the GI50 [40] of the same molecule?
Answer: 1 µM

Question: And the TGI [40]?
Answer: 2.63 µM

Question: And the GI50 [41]?
Answer: 0.238 µM

Question: What about the TGI [41] of the same molecule?
Answer: 0.719 µM

Question: What about the GI50 [42] of the same molecule?
Answer: 0.833 µM

Question: And the TGI [42]?
Answer: 10.4 µM

Question: What about the GI50 [43] of the same molecule?
Answer: 0.574 µM

Question: What about the TGI [43] of the same molecule?
Answer: 11.2 µM

Question: What about the GI50 [44] of the same molecule?
Answer: 0.0606 µM

Question: And the TGI [44]?
Answer: 94.2 µM

Question: And the GI50 [45]?
Answer: 0.444 µM

Question: And the TGI [45]?
Answer: 6.36 µM

Question: What about the GI50 [46] of the same molecule?
Answer: 1.16 µM

Question: What about the TGI [46] of the same molecule?
Answer: 2.41 µM

Question: What about the GI50 [47] of the same molecule?
Answer: 0.387 µM

Question: What about the TGI [47] of the same molecule?
Answer: 1.64 µM

Question: And the GI50 [48]?
Answer: 0.00942 µM

Question: And the TGI [48]?
Answer: 94.2 µM

Question: What about the GI50 [49] of the same molecule?
Answer: 1.09 µM

Question: And the TGI [49]?
Answer: 6.34 µM

Question: And the GI50 [50]?
Answer: 1.03 µM

Question: What about the TGI [50] of the same molecule?
Answer: 2.22 µM

Question: What about the GI50 [51] of the same molecule?
Answer: 1.6 µM

Question: What about the TGI [51] of the same molecule?
Answer: 5.83 µM

Question: What about the GI50 [52] of the same molecule?
Answer: 0.124 µM

Question: And the TGI [52]?
Answer: 2.59 µM

Question: And the GI50 [53]?
Answer: 5.27 µM

Question: And the TGI [53]?
Answer: 21 µM

Question: What about the GI50 [54] of the same molecule?
Answer: 1.2 µM

Question: And the TGI [54]?
Answer: 2.95 µM

Question: And the GI50 [55]?
Answer: 0.00942 µM

Question: And the TGI [55]?
Answer: 1.35 µM
